Data from patent US4904682A, “Treating mycoses with triazolylalkanols” (Bayer Aktiengesellschaft, priority 1987, dated 1990).
Values after ≈ are worked out from the molar mass of the structure shown.

Tests used:
Trichophyton mentagr. = experiment: Antimycotic in vitro activity, serial dilution test (MIC); type: cell-based, Trichophyton mentagrophytes; settings: Sabouraud's test medium, 28-37° C., 96 hours, read-out: MIC values in μg/ml of nutrient medium
Procedure: (§1) The in vitro tests were carried out in a serial dilution test using bacterial inocula of, on average, 5×10^3 to 10^4 bacteria/ml of substrate. Nutrients used were (a) for Dermatophytes and Hyphomycetes: Sabouraud's test medium (b) for yeasts: meat extract/dextrose broth. The incubation temperature was 28° C. to 37° C., and the incubation period was 24 to 96 hours for yeasts and 96 hours for Dermatophytes and Hyphomycetes.

Aspergillus fumigatus = experiment: as above; type: cell-based; settings: Sabouraud's test medium, 28-37° C., 96 hours, read-out: MIC values in μg/ml of nutrient medium
Procedure: as §1

Candida albicans = experiment: as above; type: cell-based; settings: meat extract/dextrose broth, 28-37° C., 24 to 96 hours, read-out: MIC values in μg/ml of nutrient medium
Procedure: as §1

Microsporum canis = experiment: as above; type: cell-based; settings: Sabouraud's test medium, 28-37° C., 96 hours, read-out: MIC values in μg/ml of nutrient medium
Procedure: as §1

Torulopsis glabrata = experiment: as above; type: cell-based; settings: Nakaseomyces glabratus, meat extract/dextrose broth, 28-37° C., 24 to 96 hours, read-out: MIC values in μg/ml of nutrient medium
Procedure: as §1

[1] = system: Dermatophytes, Hyphomycetes and yeasts; experiment: Antimycotic in vitro activity, serial dilution test (overall statement); type: cell-based; settings: in words
Procedure: as §1

Candida = experiment: Antimycotic in vivo activity (oral) in mouse candidiasis; parameters: species or system Mice of the SPF-CF1 type; settings: in words, 25-100 mg/kg
Procedure: Mice of the SPF-CF1 type are intravenously inoculated with 1-2×10^6 logarithmically growing Candida cells, which have been suspended in physical logical saline solution. One hour before and seven hours after infection, the animals are orally treated with 25-100 mg/kg of body weight of the preparation in each case. Result Untreated animals died 3 to 6 days post infection. The survival rate on the 6th day post infection was about 5% in untreated control animals.

| SMILES | MIC (Trichophyton mentagr.) | MIC (Aspergillus fumigatus) | MIC (Candida albicans) | MIC (Microsporum canis) | MIC (Torulopsis glabrata) | antimycotic activity in vitro [1] | action in mouse candidiasis compared with compounds (A) and (B) (Candida) |
| --- | --- | --- | --- | --- | --- | --- | --- |
| CC(C)(C#N)C(O)(CSc1ccc(Cl)cc1)Cn1cncn1 (stereo not drawn) [Compound 5] | 8 µg/mL (≈ 23.7 µM) | 8 µg/mL (≈ 23.7 µM) | 4 µg/mL (≈ 11.9 µM) | – | 4 µg/mL (≈ 11.9 µM) | good antimycotic activity | – |
| CC(C)(C#N)C(O)(COc1ccc(Cl)cc1)Cn1cncn1 (stereo not drawn) [Compound 8] | – | – | – | – | – | – | better action than the compounds (A) and (B) |
| CC(C)(C#N)C(O)(CSc1ccc(Br)cc1)Cn1cncn1 (stereo not drawn) [Compound 4] | < 1 µg/mL | 4 µg/mL (≈ 10.5 µM) | 8 µg/mL (≈ 21 µM) | 16 µg/mL (≈ 42 µM) | 8 µg/mL (≈ 21 µM) | good antimycotic activity | – |

Continued, in another order:

| MIC (Trichophyton mentagr.) | MIC (Aspergillus fumigatus) | MIC (Candida albicans) | MIC (Microsporum canis) | MIC (Torulopsis glabrata) | SMILES | antimycotic activity in vitro [1] | action in mouse candidiasis compared with compounds (A) and (B) (Candida) |
| --- | --- | --- | --- | --- | --- | --- | --- |
| < 1 µg/mL | 16 µg/mL (≈ 50.2 µM) | 16 µg/mL (≈ 50.2 µM) | 16 µg/mL (≈ 50.2 µM) | 16 µg/mL (≈ 50.2 µM) | CC(C)(C#N)C(O)(CCc1ccc(Cl)cc1)Cn1cncn1 (stereo not drawn) [Compound 2] | good antimycotic activity | – |
| < 1 µg/mL | 2 µg/mL (≈ 5.52 µM) | 2 µg/mL (≈ 5.52 µM) | < 1 µg/mL | 16 µg/mL (≈ 44.1 µM) | CC(C)(C#N)C(O)(COc1ccc(-c2ccccc2)cc1)Cn1cncn1 (stereo not drawn) [Compound 7] | good antimycotic activity | – |
